{"source": "paper PMC7551886", "about": "“Antitumour Effects of Astaxanthin and Adonixanthin on Glioblastoma” (Marine Drugs, 2020)", "type_in_all_cases": "cell-based, mouse", "key": {"GL261 cells": {"tested_on": "GL261 cells", "assay": "BrdU cell proliferation assay", "conditions": "GL261, temozolomide group (concentration not printed for this test); control group 60.56 ± 1.40%", "description": "GL261 cells were seeded onto 96-well plates at a density of 2 × 10^3 cells/well with DMEM supplemented with 10% FBS and then incubated for 24 h, after which the culture medium was changed to DMEM containing 10% FBS. Then, astaxanthin, adonixanthin, or temozolomide (Tokyo Chemical Industry Co., Ltd., Tokyo, Japan) were added to the culture. After 72 h of culture, the culture medium was changed to DMEM containing 10% FBS and treated with BrdU at 10 µM for 3 h. After that, immunocytochemistry was performed according to the protocol of anti-BrdU antibody (abcam, ab6326)."}, "p27": {"tested_on": "p27", "assay": "Immunoblotting, p27 expression in GL261", "conditions": "GL261, 300 µM temozolomide, 48 h", "description": "(§1) GL261 cell was seeded at 2.5 × 10^4 cells per well in 24-well plates with culture medium supplemented with 10% FBS. After 24 h of incubation, the medium was changed to DMEM containing 10% FBS and 0.1%DMSO PBS, 300 μM temozolomide, 10 μM astaxanthin, or 10 μM adonixanthin was added for 6 and 48 h. Cells were lysed in a special buffer (RIPA buffer R0278; Sigma-Aldrich, St. Louis, MO, USA) with a protease inhibitor cocktail (Sigma-Aldrich), phosphatase inhibitor cocktails 2 and 3 (Sigma-Aldrich), and sample buffer (Wako, Osaka, Japan). The protein concentration was determined by comparison with a known concentration of bovine serum albumin using the BCA Protein Assay Kit (Thermo Fisher Scientific). The amount of total protein was 2 μg. Equal amounts of protein in sample buffer containing 10% 2-mercaptoethanol were subjected to sodium dodecyl sulphate polyacrylamide gel electrophoresis (SDS-PAGE) in 5-20% gradient gels (SuperSep Ace; Wako), and the separated proteins were transferred to polyvinylidene difluoride membrane (Immobilon-P; Merck Millipore Corporation, Bedford, MA, USA). After blocking for 30 min with Blocking One-P (Nacalai Tesque), we incubated the membranes with primary antibodies overnight at 4 °C. […] The band intensity was […] an Immuno Star LD (Wako). Band intensity was measured using an LAS-4000 UV mini Luminescent Image Analyzer (Fujifilm, Tokyo Japan) and Multi Gauge Version 3.0 (Fujifilm). The phosphorylation of ERK1/2, Akt, and p38 MAPK was measured by normalizing against total ERK1/2, total Akt, and total p38 MAPK. […]"}, "Bcl-2": {"tested_on": "Bcl-2", "assay": "Immunoblotting, Bcl-2 expression in GL261", "conditions": "GL261, 300 µM, 48 h", "description": "as §1"}}, "data": [{"smiles": "Cn1nnc2c(C(N)=O)ncn2c1=O", "note": "[temozolomide, reference compound]", "values": [{"measurement": "BrdU-positive cell rate", "setting": "GL261 cells", "value": "19.17 ± 1.77", "unit": "%"}, {"measurement": "expression of p27", "setting": "p27", "value": "significantly reduced"}, {"measurement": "expression of Bcl-2 vs. control", "setting": "Bcl-2", "value": "N.S."}]}]}
